# Reference: US10881653B2, “Tricyclic compounds and their use in the treatment of cancer” (The United States of America, as represented by the …, priority 2015, dated 2021)
# Counter-ions that a name gives are not always drawn.
# Legend:
# FaDu cells = conditions: mouse, in vivo, 15 mg/kg
# Experimental: Fox Chase male severe combined immunodeficiency (SCID, Charles River, #250) mice were inoculated with 1×10^6 FaDu cells in PBS at a pre-shaved region located at the anterior lateral thoracic wall. After 13 days of growth, tumors were caliper measured and treatments were initiated. Mice were injected with 15 mg/kg of the compound of Example 1, or vehicle a total of nine times in a five-day span via i.v. tail injection. Upon the final dose, injections were performed subcutaneously (s.c.) due to pronounced hematomas at the tail injection site. Mouse health status was monitored daily, weight was measured, and tumor volume was recorded from caliper measurements. […] Tumor growth was normalized to day 0 caliper measurements, and treatment with the compound of Example 1 (N=6, p<0.01) was compared to vehicle (N=4) using a repeated measures ANOVA with a Dunnett's multiple comparison post test.
# TK-10 = assay: Cell growth inhibition GI50; assay type: cell-based; conditions: Homo sapiens, Renal Cancer
# Experimental: (§1) Cell lines were plated 2000 cells/well in 96-well black optical plates in the presence of 10% FBS media containing 25 nM selenite. The following day cells were treated with various concentrations of the compound of Example 1 (0.1% DMSO final) and incubated for 72 hrs. After the incubation Cell-Quanti Blue reagent was added to each well and incubated for additional 3 hrs. Fluorescence was read ex:530 nm/em:590 nm, and percent of viability was determined using DMSO vehicle and no cell (blank) controls.
# (§2) Further results obtained in similar experiments were as indicated below (GI50 refers to concentration of compound yielding 50% growth inhibition; E denotes an exponent to the base 10).
# SNB-19 = assay: Cell growth inhibition GI50; assay type: cell-based; conditions: Homo sapiens, CNS Cancer
# Experimental: as §1, §2
# M14 = assay: Cell growth inhibition GI50; assay type: cell-based; conditions: Homo sapiens, Melanoma
# Experimental: as §1, §2
# PC-3 = assay: Cell growth inhibition GI50; assay type: cell-based; conditions: Homo sapiens, Prostate Cancer
# Experimental: as §1, §2
# K-562 = assay: Cell growth inhibition GI50; assay type: cell-based; conditions: Homo sapiens, K562, Leukemia
# Experimental: as §1, §2
# UACC-257 = assay: Cell growth inhibition GI50; assay type: cell-based; conditions: Homo sapiens, Melanoma
# Experimental: as §1, §2
# HOP-62 = assay: Cell growth inhibition GI50; assay type: cell-based; conditions: Homo sapiens, Non-Small Cell Lung Cancer
# Experimental: as §1, §2
# HL-60(TB) = assay: Cell growth inhibition GI50; assay type: cell-based; conditions: Homo sapiens, Leukemia
# Experimental: as §1, §2
# SK-MEL-5 = assay: Cell growth inhibition GI50; assay type: cell-based; conditions: Homo sapiens, Melanoma
# Experimental: as §1, §2
# U251 = assay: Cell growth inhibition GI50; assay type: cell-based; conditions: Homo sapiens, U-251, CNS Cancer
# Experimental: as §1, §2
# HCT-15 = assay: Cell growth inhibition GI50; assay type: cell-based; conditions: Homo sapiens, Colon Cancer
# Experimental: as §1, §2
# NCI-H522 = assay: Cell growth inhibition GI50; assay type: cell-based; conditions: Homo sapiens, Non-Small Cell Lung Cancer
# Experimental: as §1, §2
# BT-549 = assay: Cell growth inhibition GI50; assay type: cell-based; conditions: Homo sapiens, Breast Cancer
# Experimental: as §1, §2
# T-47D = assay: Cell growth inhibition GI50; assay type: cell-based; conditions: Homo sapiens, T47D, Breast Cancer
# Experimental: as §1, §2
# LOX IMVI = assay: Cell growth inhibition GI50; assay type: cell-based; conditions: Homo sapiens, Melanoma
# Experimental: as §1, §2
# SK-MEL-2 = assay: Cell growth inhibition GI50; assay type: cell-based; conditions: Homo sapiens, Melanoma
# Experimental: as §1, §2
# SK-OV-3 = assay: Cell growth inhibition GI50; assay type: cell-based; conditions: Homo sapiens, Ovarian Cancer
# Experimental: as §1, §2
# OVCAR-8 = assay: Cell growth inhibition GI50; assay type: cell-based; conditions: Homo sapiens, Ovarian Cancer
# Experimental: as §1, §2
# SF-295 = assay: Cell growth inhibition GI50; assay type: cell-based; conditions: Homo sapiens, CNS Cancer
# Experimental: as §1, §2
# HOP-92 = assay: Cell growth inhibition GI50; assay type: cell-based; conditions: Homo sapiens, Non-Small Cell Lung Cancer
# Experimental: as §1, §2
# NCI/ADR-RES = assay: Cell growth inhibition GI50; assay type: cell-based; conditions: Homo sapiens, Ovarian Cancer
# Experimental: as §1, §2
# UACC-62 = assay: Cell growth inhibition GI50; assay type: cell-based; conditions: Homo sapiens, Melanoma
# Experimental: as §1, §2
# CCRF-CEM = assay: Cell growth inhibition GI50; assay type: cell-based; conditions: Homo sapiens, Leukemia
# Experimental: as §1, §2
# HCC-2998 = assay: Cell growth inhibition GI50; assay type: cell-based; conditions: Homo sapiens, Colon Cancer
# Experimental: as §1, §2
# EKVX = assay: Cell growth inhibition GI50; assay type: cell-based; conditions: Homo sapiens, Non-Small Cell Lung Cancer
# Experimental: as §1, §2
# 786-0 = assay: Cell growth inhibition GI50; assay type: cell-based; conditions: Homo sapiens, Renal Cancer
# Experimental: as §1, §2
# A549/ATCC = assay: Cell growth inhibition GI50; assay type: cell-based; conditions: Homo sapiens, Non-Small Cell Lung Cancer
# Experimental: as §1, §2
# SN12C = assay: Cell growth inhibition GI50; assay type: cell-based; conditions: Homo sapiens, Renal Cancer
# Experimental: as §1, §2
smiles,measurement,setting,value
"O=C1C=C[C@H]2[C@@H]3C(=O)N(c4ccccc4)C(=O)[C@@H]3[C@@H]1N2Cc1ccccc1 (relative stereo) [Example 1, exo-11-Benzyl-4-phenyl-4,11-diazatricyclo[5.3.1.0^2,6]undec-9-ene-3,5,8-trione Trifluoroacetate]",Signs of general or systemic toxic effects,FaDu cells,no overt signs of general or systemic toxic effects in normal cells or tissues
same,GI50,TK-10,8.07 µM
same,GI50,SNB-19,6.04 µM
same,GI50,M14,2.6 µM
same,GI50,PC-3,4.68 µM
same,GI50,K-562,1.67 µM
same,GI50,UACC-257,3.22 µM
same,GI50,HOP-62,1.38 µM
same,GI50,HL-60(TB),1.17 µM
same,GI50,SK-MEL-5,3.56 µM
same,GI50,U251,2.29 µM
same,GI50,HCT-15,1.74 µM
same,GI50,NCI-H522,2.68 µM
same,GI50,BT-549,3.45 µM
same,GI50,T-47D,4.92 µM
same,GI50,LOX IMVI,1.61 µM
same,GI50,SK-MEL-2,4.37 µM
same,GI50,SK-OV-3,13.2 µM
same,GI50,OVCAR-8,2.88 µM
same,GI50,SF-295,6.41 µM
same,GI50,HOP-92,3.66 µM
same,GI50,NCI/ADR-RES,2.55 µM
same,GI50,UACC-62,2.01 µM
same,GI50,CCRF-CEM,0.942 µM
same,GI50,HCC-2998,7.94 µM
same,GI50,EKVX,7.78 µM
same,GI50,786-0,1.69 µM
same,GI50,A549/ATCC,14.9 µM
same,GI50,SN12C,1.64 µM
